Measurements reported in ChEMBL document CHEMBL5696442, “Discovery of type II inhibitors of TGFβ-activated kinase 1 (TAK1) and mitogen-activated protein kinase kinase kinase kinase 2 (MAP4K2)” (J Med Chem, 2015).
The source made the active and inactive calls. No cut-off for these calls is given here.

How the values were obtained:
[1] = target: Activin receptor type-2A (Homo sapiens) (UniProt P27037); assay: Inhibition of ACVR2A (unknown origin) at 10 uM by Ambit Kinomescan binding assay
[2] = target: Tyrosine-protein kinase FRK (Homo sapiens) (UniProt P42685); assay: Inhibition of FRK (unknown origin) at 10 uM by Ambit Kinomescan binding assay relative to control
[3] = test system: Mast/stem cell growth factor receptor Kit (Homo sapiens), P10721 [V559D]; assay: Inhibition of KIT V559D mutant (unknown origin) at 10 uM by Ambit Kinomescan binding assay relative to control
[4] = target: Serine/threonine-protein kinase RIO3 (Homo sapiens) (UniProt O14730); assay: Inhibition of RIOK3 (unknown origin) at 10 uM by Ambit Kinomescan binding assay
[5] = target: T1, Dual specificity mitogen-activated protein kinase kinase 4 (Homo sapiens) (UniProt P45985); assay: Inhibition of MAP2K4 K2 labeling site harbouring DIKPSNILLDR in human Huh-7 cells at 10 uM by KiNativ Profiling analysis relative to control; assay type: cell-based
T1 sequence (whole entry): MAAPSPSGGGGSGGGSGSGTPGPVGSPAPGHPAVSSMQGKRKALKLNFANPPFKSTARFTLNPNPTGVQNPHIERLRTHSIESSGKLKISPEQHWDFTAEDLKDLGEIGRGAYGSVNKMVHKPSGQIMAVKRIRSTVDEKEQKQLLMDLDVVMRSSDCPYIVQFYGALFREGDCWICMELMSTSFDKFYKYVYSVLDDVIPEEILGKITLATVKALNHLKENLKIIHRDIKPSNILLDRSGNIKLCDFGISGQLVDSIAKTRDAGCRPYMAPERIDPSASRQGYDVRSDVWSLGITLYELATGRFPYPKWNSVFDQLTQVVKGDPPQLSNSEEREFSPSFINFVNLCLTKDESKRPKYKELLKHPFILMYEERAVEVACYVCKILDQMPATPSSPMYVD

[6] = target: Tyrosine-protein kinase SYK (Homo sapiens) (UniProt P43405); assay: Inhibition of SYK (unknown origin) at 10 uM by Ambit Kinomescan binding assay relative to control; values are per cent of control
[7] = target: Tyrosine-protein kinase BTK (Homo sapiens) (UniProt Q06187); assay: Inhibition of BTK (unknown origin) at 1 uM by Ambit Kinomescan binding assay relative to control
[8] = target: Cyclin-dependent kinase 7 (Homo sapiens) (UniProt P50613); assay: Inhibition of CDK7 Lys2 labeling site in human A-375 cells at 0.5 uM by KiNativ Profiling analysis relative to control; assay type: cell-based
[9] = target: Microtubule-associated serine/threonine-protein kinase 2 (Homo sapiens) (UniProt Q6P0Q8); assay: Inhibition of MAST2 Lys2 labeling site in human A-375 cells at 0.05 uM by KiNativ Profiling analysis relative to control; assay type: cell-based
[10] = target: Tyrosine-protein kinase Fyn (Homo sapiens) (UniProt P06241); assay: Inhibition of FYN (unknown origin) at 1 uM by Ambit Kinomescan binding assay relative to control; values are per cent of control
[11] = target: Mitogen-activated protein kinase kinase kinase kinase 1 (Homo sapiens) (UniProt Q92918); assay: Inhibition of HPK1 (unknown origin) at 1 uM by Ambit Kinomescan binding assay relative to control; values are per cent of control
[12] = target: T2, Mitogen-activated protein kinase kinase kinase 3 (Homo sapiens) (UniProt Q99759); assay: Inhibition of MAP3K3 Lys2 labeling site in human Huh-7 cell lysate at 1 uM by KiNativ Profiling analysis relative to control; assay type: subcellular
T2 sequence (whole entry): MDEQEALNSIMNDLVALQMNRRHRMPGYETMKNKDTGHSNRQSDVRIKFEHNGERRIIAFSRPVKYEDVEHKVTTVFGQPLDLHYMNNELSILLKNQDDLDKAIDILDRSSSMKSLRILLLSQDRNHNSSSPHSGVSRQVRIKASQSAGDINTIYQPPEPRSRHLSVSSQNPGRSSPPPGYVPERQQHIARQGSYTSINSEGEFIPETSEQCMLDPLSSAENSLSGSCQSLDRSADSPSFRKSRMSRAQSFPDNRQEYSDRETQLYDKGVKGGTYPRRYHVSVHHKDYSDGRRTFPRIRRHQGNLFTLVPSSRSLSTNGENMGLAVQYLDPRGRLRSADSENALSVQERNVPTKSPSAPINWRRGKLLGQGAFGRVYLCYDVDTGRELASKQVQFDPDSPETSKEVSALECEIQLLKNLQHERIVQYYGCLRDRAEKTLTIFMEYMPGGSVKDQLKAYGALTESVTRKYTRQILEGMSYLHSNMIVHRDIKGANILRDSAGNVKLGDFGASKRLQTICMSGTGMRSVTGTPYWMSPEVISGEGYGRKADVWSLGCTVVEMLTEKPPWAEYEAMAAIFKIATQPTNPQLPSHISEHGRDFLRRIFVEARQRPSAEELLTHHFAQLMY

[13] = target: Serine/threonine-protein kinase Nek7 (Homo sapiens) (UniProt Q8TDX7); assay: Inhibition of NEK7 Lys2 labeling site harbouring DIKPANVFITATGVVK in human Huh-7 cell lysate at 1 uM by KiNativ Profiling analysis relative to control; assay type: subcellular
[14] = target: T3, Serine/threonine-protein kinase ULK3 (Homo sapiens) (UniProt Q6PHR2); assay: Inhibition of ULK3 Lys1 labeling site in human Huh-7 cell lysate at 1 uM by KiNativ Profiling analysis relative to control; assay type: subcellular
T3 sequence (whole entry): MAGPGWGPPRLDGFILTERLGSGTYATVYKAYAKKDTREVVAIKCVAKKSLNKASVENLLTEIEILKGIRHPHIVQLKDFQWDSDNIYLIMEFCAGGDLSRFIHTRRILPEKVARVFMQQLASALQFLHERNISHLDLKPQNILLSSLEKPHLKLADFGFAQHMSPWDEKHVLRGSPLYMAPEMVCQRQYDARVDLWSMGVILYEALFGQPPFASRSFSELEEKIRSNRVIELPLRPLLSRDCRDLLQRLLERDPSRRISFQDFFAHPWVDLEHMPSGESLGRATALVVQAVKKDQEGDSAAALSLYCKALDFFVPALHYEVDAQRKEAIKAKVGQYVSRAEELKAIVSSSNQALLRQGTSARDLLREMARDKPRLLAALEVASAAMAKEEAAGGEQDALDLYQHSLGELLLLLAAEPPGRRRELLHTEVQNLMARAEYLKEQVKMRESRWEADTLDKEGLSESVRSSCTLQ

[15] = target: Serine/threonine-protein kinase VRK2 (Homo sapiens) (UniProt Q86Y07); assay: Inhibition of VRK2 Lys2 labeling site in human Huh-7 cell lysate at 1 uM by KiNativ Profiling analysis relative to control; assay type: subcellular
Sequence of Serine/threonine-protein kinase VRK2 (Homo sapiens) (Q86Y07 whole entry): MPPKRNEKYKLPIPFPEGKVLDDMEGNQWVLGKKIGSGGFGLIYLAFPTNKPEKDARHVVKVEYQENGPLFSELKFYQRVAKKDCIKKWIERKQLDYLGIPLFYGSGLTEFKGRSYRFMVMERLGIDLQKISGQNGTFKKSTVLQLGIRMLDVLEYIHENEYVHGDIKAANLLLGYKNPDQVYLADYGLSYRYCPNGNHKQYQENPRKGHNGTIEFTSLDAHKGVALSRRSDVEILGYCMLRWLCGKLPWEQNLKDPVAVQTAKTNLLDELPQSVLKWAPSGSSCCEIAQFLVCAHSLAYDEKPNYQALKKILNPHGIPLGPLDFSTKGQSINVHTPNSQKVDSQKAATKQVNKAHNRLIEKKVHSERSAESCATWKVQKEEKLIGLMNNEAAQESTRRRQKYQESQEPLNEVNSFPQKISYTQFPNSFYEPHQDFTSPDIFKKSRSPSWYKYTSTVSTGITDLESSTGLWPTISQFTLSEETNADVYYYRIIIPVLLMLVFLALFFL

Sequence of Activin receptor type-2A (Homo sapiens) (P27037 whole entry): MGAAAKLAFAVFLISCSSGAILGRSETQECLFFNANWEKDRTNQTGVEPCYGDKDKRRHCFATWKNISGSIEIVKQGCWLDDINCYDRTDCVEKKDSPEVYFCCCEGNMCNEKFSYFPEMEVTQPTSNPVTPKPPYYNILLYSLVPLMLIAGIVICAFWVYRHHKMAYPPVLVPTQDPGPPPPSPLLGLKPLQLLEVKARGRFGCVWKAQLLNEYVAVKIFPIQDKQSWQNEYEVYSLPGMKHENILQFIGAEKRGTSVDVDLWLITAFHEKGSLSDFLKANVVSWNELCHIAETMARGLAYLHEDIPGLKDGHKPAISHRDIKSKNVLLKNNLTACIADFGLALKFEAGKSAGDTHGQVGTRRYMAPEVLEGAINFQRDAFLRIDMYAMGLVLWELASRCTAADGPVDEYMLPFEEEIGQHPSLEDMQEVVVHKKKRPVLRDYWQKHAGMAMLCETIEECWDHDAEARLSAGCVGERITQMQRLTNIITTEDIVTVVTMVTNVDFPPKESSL
Sequence of Cyclin-dependent kinase 7 (Homo sapiens) (P50613 whole entry): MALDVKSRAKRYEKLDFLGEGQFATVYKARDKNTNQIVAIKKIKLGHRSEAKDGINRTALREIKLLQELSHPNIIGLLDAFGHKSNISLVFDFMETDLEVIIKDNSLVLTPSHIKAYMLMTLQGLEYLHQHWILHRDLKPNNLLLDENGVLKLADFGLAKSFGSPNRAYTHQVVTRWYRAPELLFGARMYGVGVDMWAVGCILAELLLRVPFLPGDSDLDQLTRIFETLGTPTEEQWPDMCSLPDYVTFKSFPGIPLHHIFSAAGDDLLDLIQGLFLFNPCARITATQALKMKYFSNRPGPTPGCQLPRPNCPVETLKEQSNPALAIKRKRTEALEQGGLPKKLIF
Sequence of Mast/stem cell growth factor receptor Kit (Homo sapiens), P10721 [V559D] (P10721 whole entry V559D): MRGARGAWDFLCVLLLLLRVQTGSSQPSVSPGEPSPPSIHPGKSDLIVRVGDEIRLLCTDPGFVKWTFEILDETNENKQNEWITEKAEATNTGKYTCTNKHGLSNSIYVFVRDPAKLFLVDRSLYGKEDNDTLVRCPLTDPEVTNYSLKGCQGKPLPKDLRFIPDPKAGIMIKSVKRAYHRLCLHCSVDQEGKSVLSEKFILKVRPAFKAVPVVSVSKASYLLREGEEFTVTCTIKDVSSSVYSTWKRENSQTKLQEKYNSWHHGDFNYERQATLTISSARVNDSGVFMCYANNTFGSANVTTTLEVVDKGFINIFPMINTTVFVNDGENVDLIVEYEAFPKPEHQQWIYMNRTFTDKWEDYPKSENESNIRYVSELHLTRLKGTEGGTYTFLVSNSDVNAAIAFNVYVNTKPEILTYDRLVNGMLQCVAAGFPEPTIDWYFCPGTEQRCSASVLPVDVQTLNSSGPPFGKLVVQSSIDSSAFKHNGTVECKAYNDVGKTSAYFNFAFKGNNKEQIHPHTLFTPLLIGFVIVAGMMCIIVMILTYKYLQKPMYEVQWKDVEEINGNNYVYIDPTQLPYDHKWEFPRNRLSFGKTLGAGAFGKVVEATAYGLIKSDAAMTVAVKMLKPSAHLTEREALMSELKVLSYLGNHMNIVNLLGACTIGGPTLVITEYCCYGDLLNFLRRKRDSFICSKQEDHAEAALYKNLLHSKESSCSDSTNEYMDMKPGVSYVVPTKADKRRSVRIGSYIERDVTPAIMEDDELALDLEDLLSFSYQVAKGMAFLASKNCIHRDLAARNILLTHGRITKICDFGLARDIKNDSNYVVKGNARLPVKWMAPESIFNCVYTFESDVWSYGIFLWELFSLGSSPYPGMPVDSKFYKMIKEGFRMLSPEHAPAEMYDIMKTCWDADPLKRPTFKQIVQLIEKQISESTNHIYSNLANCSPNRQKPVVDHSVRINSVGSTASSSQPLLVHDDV
Sequence of Mitogen-activated protein kinase kinase kinase kinase 1 (Homo sapiens) (Q92918 whole entry, looked up): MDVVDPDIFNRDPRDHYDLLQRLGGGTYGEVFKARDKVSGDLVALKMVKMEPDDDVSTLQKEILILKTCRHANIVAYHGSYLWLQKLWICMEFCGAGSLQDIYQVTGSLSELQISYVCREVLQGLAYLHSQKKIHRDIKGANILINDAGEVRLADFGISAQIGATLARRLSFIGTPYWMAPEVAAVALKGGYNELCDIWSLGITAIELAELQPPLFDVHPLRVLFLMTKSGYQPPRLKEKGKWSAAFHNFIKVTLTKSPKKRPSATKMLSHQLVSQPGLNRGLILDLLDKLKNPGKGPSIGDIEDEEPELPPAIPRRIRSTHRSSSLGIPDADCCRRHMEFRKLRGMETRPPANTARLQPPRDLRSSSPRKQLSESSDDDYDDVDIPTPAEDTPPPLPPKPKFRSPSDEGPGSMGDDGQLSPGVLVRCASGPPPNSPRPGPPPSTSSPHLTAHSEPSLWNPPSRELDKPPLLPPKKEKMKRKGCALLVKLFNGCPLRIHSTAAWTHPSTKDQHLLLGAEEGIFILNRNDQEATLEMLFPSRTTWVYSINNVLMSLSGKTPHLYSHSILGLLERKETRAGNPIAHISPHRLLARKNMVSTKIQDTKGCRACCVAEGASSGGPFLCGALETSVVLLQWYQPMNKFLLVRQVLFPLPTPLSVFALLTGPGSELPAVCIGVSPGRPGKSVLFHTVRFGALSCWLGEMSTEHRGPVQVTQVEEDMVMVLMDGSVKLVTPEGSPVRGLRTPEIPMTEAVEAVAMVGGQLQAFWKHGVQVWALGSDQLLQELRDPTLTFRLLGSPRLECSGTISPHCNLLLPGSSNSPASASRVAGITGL
Sequence of Tyrosine-protein kinase Fyn (Homo sapiens) (P06241 2-537 limits assumed): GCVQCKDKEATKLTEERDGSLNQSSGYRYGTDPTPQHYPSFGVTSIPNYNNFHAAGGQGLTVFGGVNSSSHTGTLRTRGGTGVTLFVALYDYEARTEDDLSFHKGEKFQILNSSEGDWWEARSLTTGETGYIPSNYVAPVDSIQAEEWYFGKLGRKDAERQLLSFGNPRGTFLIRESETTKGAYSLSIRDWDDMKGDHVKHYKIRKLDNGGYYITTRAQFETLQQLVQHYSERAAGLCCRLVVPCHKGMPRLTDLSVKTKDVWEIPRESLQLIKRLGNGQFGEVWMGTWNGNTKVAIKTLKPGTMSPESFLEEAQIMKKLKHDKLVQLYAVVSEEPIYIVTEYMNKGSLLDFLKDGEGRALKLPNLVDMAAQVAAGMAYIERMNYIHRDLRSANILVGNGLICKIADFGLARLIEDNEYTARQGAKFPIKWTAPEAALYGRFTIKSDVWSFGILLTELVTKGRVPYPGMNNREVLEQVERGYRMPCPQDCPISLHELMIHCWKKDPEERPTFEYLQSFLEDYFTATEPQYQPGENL
Sequence of Tyrosine-protein kinase FRK (Homo sapiens) (P42685 whole entry): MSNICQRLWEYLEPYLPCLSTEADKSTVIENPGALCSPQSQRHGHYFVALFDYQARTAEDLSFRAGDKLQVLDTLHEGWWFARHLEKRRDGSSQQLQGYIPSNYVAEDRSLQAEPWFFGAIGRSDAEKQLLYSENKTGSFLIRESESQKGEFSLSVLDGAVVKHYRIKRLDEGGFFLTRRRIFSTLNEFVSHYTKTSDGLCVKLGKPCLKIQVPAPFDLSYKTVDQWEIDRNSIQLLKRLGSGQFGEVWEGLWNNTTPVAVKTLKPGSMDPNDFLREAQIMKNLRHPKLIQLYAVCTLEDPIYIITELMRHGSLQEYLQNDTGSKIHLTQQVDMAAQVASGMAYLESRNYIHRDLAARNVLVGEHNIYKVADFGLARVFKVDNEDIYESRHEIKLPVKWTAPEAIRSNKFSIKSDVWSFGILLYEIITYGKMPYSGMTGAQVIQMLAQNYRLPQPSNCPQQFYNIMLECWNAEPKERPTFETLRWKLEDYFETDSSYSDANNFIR
Sequence of Serine/threonine-protein kinase RIO3 (Homo sapiens) (O14730 whole entry): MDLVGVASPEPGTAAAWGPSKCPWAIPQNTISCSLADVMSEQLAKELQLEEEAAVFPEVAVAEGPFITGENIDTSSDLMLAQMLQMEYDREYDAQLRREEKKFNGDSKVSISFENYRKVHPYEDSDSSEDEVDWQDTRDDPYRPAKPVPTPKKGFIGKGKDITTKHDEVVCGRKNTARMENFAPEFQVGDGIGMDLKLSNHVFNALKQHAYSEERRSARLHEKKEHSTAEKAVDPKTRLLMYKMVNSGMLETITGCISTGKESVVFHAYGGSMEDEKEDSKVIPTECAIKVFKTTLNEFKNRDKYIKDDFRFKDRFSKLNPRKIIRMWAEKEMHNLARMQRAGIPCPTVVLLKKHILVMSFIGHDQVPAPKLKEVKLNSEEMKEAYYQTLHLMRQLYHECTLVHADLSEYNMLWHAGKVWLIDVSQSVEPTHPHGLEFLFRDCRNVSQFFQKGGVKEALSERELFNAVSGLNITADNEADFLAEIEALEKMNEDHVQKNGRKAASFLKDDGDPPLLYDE

CCN1CCN(Cc2ccc(NC(=O)c3ccc(C)c(Oc4ccnc5[nH]ccc45)c3)cc2C(F)(F)F)CC1
inhibition [1]: inactive | inhibition [2]: 0.7% | inhibition [3]: 0% | inhibition [4]: inactive | inhibition [5]: -4.6% | residual activity [6]: 6.2%

CCN1CCN(Cc2ccc(NC(=O)c3ccc(C)c(/C=C/c4cnc5[nH]ccc5c4OC)c3)cc2C(F)(F)F)CC1
inhibition [7]: 10% | inhibition [8]: 36.2% | inhibition [9]: -1.4% | percent of control [10]: 5.2% | residual activity [11]: 0.55%

CNc1cc(Oc2cc(C(=O)Nc3cc(N4CCN(C)CC4)cc(C(F)(F)F)c3)ccc2C)ncn1
inhibition [12]: 1.9% | inhibition [13]: -5% | inhibition [14]: -5.1% | inhibition [15]: -0.9%
